Molecular target: human P2X3 receptor (Homo sapiens (Human), UniProt P56373)
Assay: Evaluation of human P2X3 receptor inhibitory activity (Fluo-3 calcium fluorescence, FDSS 3000, ATP stimulation);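 also: stimulus was 50 nM ATP with fluorescence followed for 3 min, and the response per well was peak post-ATP fluorescence divided by the reading at measurement start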
Type: cell-based
[1] = human P2X3 receptor, Test Example 1
[2] = C6BU-1 cells stably expressing human P2X3 receptor
[3] = C6BU-1 cells stably expressing human P2X3 receptor, Fluo-3 fluorescence, FDSS 3000

Sequence of human P2X3 receptor (P56373 whole entry): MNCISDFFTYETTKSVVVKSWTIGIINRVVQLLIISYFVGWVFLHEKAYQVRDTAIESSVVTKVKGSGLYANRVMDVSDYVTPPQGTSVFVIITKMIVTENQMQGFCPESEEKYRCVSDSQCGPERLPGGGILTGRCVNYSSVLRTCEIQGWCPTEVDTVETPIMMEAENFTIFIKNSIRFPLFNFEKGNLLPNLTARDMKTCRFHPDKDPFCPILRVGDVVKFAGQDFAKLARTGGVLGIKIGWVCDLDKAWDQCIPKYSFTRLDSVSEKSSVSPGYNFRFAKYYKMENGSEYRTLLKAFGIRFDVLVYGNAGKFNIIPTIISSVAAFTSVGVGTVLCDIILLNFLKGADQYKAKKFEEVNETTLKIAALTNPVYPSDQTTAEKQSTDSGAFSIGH

Row | Compound | IC50 [1] [nM] | IC50 [2] [nM] | further results
1 | CC(C)(O)Cn1c(=O)[nH]/c(=N\c2ccc(Oc3ccon3)cc2)n(Cc2ccc(Cl)cc2)c1=O [Compound I-2672] | 11 |  | 
2 | CC1CCC(Cn2c(=O)n(CCO)c(=O)[nH]/c2=N\c2ccc(Oc3ccnc(O)c3)cc2)CC1 (centres unmarked) [Compound I-2022] |  | 7 | 
3 | CCCCOc1ccc(/N=c2\[nH]c(=O)n(C[C@H](C)C(=O)O)c(=O)n2Cc2ccc(C)cc2)cc1 [Compound I-0820] |  | 35 | 
4 | Cc1ccc(Cn2c(=O)n(CCC(=O)O)c(=O)[nH]/c2=N\c2ccc3nc(C)sc3c2)cc1 [Compound I-1521] | 22 |  | 
5 | Cc1ccc(Cn2c(=O)n(C[C@H](C)C(=O)O)c(=O)[nH]/c2=N\c2ccc(OC3CCCCC3)cc2)cc1 [Compound I-1222] |  | 17 | 
6 | CC1(C)OCC(Cn2c(=O)[nH]/c(=N\c3ccc(Oc4ccon4)cc3)n(Cc3ccc(Cl)cc3)c2=O)CO1 [Compound I-2287] | < 4 |  | 
7 | CCn1c(=O)[nH]/c(=N\c2ccc(O[C@@H]3C[C@@H](C(=O)OC)N(C(=O)OC(C)(C)C)C3)cc2)n(Cc2ccc(Cl)cc2)c1=O [Compound I-2265] | 299 |  | 
8 | NC(=O)Cn1c(=O)[nH]/c(=N\c2ccc(Oc3cnsn3)cc2)n(Cc2ccc(Cl)cc2)c1=O [Compound I-2675] | 13 |  | 
9 | CCOc1ccc(/N=c2\[nH]c(=O)n(CC3COC(C)(C)OC3)c(=O)n2Cc2ccc(Cl)cc2)cc1Cl [Compound I-1886] |  |  | IC50 [3]: 3 nM
10 | CCn1c(=O)[nH]/c(=N\c2ccc(Oc3ncc(C(=O)O)s3)cc2)n(C[C@H]2CC[C@H](C)CC2)c1=O [Compound I-2347] | 5 |  | 
11 | CCc1oc2ccc(/N=c3\[nH]c(=O)n(CC(=O)NCCO)c(=O)n3Cc3ccc(Cl)cc3)cc2c1C [Compound I-1658] |  |  | IC50 [3]: 6 nM
12 | COC(=O)C(C)(C)Cn1c(=O)[nH]/c(=N\c2ccc(CC(C)C)c(Cl)c2)n(Cc2ccc(C)cc2)c1=O [Compound I-1447] |  | 6 | 
13 | CC(C)Oc1ccc(/N=c2\[nH]c(=O)n(CC(=O)N3CCNCC3)c(=O)n2Cc2ccc(Cl)cc2)cc1Cl [Compound I-0742] |  | 38 | 
14 | CCOC(=O)c1cnc(Oc2ccc(/N=c3\[nH]c(=O)n(CC)c(=O)n3Cc3ccc(Cl)cc3)cc2)o1 [Compound I-2187] |  | 44 | 
15 | CCn1c(=O)[nH]/c(=N\c2ccc(Oc3cncc(C(=O)O)c3)cc2)n(CC2CCC(C)(C)CC2)c1=O [Compound I-2207] |  | 69 | 
16 | Cc1nsc(Oc2ccc(/N=c3\[nH]c(=O)n(CC(C)(CO)CO)c(=O)n3Cc3ccc(F)cc3)cc2)n1 [Compound I-2571] | 7 |  | 

Row | Compound | IC50 [1] [nM] | IC50 [2] [nM] | further results
17 | O=C(O)CCn1c(=O)[nH]/c(=N\c2ccc(OC3CCC3)c(Cl)c2)n(Cc2ccc(Cl)cc2)c1=O [Compound I-1333] |  | 52 | 
18 | Cc1ccc(Cn2c(=O)n(C[C@H](C)C(=O)O)c(=O)[nH]/c2=N\c2ccc(N3CCCC3)cc2)cc1 [Compound I-1091] |  |  | IC50 [3]: 179 nM
19 | CCn1c(=O)[nH]/c(=N\c2ccc(Oc3ccnc(C(=O)OC)c3)cc2)n(Cc2ccc(F)cc2)c1=O [Compound I-2359] | 26 |  | 
20 | CCn1c(=O)[nH]/c(=N\c2ccc(Oc3ccc(F)c(C(=O)OC)c3)cc2)n(Cc2ccc(Cl)cc2)c1=O [Compound I-2057] |  | 21 | 
21 | CC[C@@H](C)Oc1ccc(/N=c2\[nH]c(=O)n([C@H](C)CC(=O)OC)c(=O)n2Cc2ccc(C)cc2)cc1 [Compound I-0939] |  |  | IC50 [3]: 34 nM
22 | CCn1c(=O)[nH]/c(=N\c2ccc(Oc3cc(C(=O)OC)nc(Cl)n3)cc2)n(Cc2ccc(Cl)cc2)c1=O [Compound I-2210] |  | 14 | 
23 | CC(C)Oc1ccc(/N=c2\[nH]c(=O)n([C@@H]3C[C@H]3C(=O)O)c(=O)n2Cc2ccc(Cl)cc2)cc1F [Compound I-0612] |  | 38 | 
24 | O=C(O)c1cc(Oc2ccc(/N=c3\[nH]c(=O)n(C4CC4)c(=O)n3Cc3ccc(Cl)cc3)cc2)ccn1 [Compound I-2330] | 7 |  | 
25 | COCCn1c(=O)[nH]/c(=N\c2ccc(Oc3ccnc(C(=O)O)c3)cc2)n(Cc2ccc(Cl)cc2)c1=O [Compound I-2552] | 5 |  | 
26 | O=c1[nH]/c(=N\c2ccc(Oc3ccn[nH]3)cc2)n(Cc2ccc(Cl)cc2)c(=O)n1C[C@H](O)CO [Compound I-2453] | 64 |  | 
27 | Cc1ccc(Cn2c(=O)n(C[C@H](C)C(=O)O)c(=O)[nH]/c2=N\c2ccc(CC(C)C)cc2)cc1 [Compound I-0872] | 81 |  | 
28 | COC(=O)[C@@H](C)Cn1c(=O)[nH]/c(=N\c2ccc(CC(C)C)c(F)c2)n(Cc2ccc(Cl)cc2)c1=O [Compound I-1254] |  | 45 | 
29 | Cc1ccc(Cn2c(=O)n(C[C@H](C)C(=O)O)c(=O)[nH]/c2=N\c2ccc(OC3COC3)cc2)cc1 [Compound I-1221] |  | 117 | 
30 | COc1ccc(Oc2ccc(/N=c3\[nH]c(=O)n(CC(CO)CO)c(=O)n3Cc3ccc(Cl)cc3)cc2)cn1 [Compound I-1843] |  |  | IC50 [3]: 4 nM
31 | Cc1ccc(Cn2c(=O)n(CCC(=O)O)c(=O)[nH]/c2=N\c2ccc(OCC(C)(C)C)cc2)cc1 [Compound I-1071] |  |  | IC50 [3]: 998 nM
32 | Cc1ccc(/N=c2\[nH]c(=O)n(C[C@H](C)C(=O)O)c(=O)n2Cc2ccc(Cl)cc2)cc1Cl [Compound I-0696] |  | 129 | 

From US9718790B2, “Triazine derivative and pharmaceutical composition having an analgesic activity comprising the same” (SHIONOGI & CO., LTD., priority 2010, dated 2017)
